In brackets after ≈: the same amount, converted by molar mass.
How the values were obtained:
Bacillus subtilis = assay: Antibacterial activity against Bacillus subtilis ATCC 6633 by broth microdilution method; assay type: functional
[1] = test system: Staphylococcus epidermidis; assay: Antibacterial activity against biofilm forming Staphylococcus epidermidis ATCC 35984 by broth microdilution method; assay type: functional
Staphylococcus aureus [2] = assay: Antibacterial activity against methicillin-resistant Staphylococcus aureus ATCC 33591 by broth microdilution method; assay type: functional
Staphylococcus aureus [3] = assay: Antibacterial activity against methicillin-sensitive Staphylococcus aureus ATCC 29213 by broth microdilution method; assay type: functional
Enterococcus faecalis [4] = assay: Antibacterial activity against Enterococcus faecalis ATCC 15376 expressing vanA gene by broth microdilution method; assay type: functional
Enterococcus faecalis [5] = assay: Antibacterial activity against Enterococcus faecalis ATCC 29212 by broth microdilution method; assay type: functional
[6] = test system: Staphylococcus epidermidis; assay: Antibacterial activity against Staphylococcus epidermidis expressing mecA gene by broth microdilution method; assay type: functional
Enterococcus faecalis [7] = assay: Antibacterial activity against Enterococcus faecalis ATCC 51299 expressing vanB gene by broth microdilution method; assay type: functional
Influenza A virus = assay: Antiviral activity against Influenza A/PR/8/34 infected in MDCK cells assessed as inhibition of virus-induced cytopathic effect measured on day 3 post infection by MTS assay; assay type: functional, organism-based; conditions: A/Puerto Rico/8/1934(H1N1), 72 h
H3N2 subtype = assay: Antiviral activity against Influenza A/HK/7/87 infected in MDCK cells assessed as inhibition of virus-induced cytopathic effect measured on day 3 post infection by MTS assay; assay type: functional, organism-based; conditions: A/Hong Kong/7/1987(H3N2), 72 h
Influenza B virus = assay: Antiviral activity against Influenza B/HK/5/72 infected in MDCK cells assessed as inhibition of virus-induced cytopathic effect measured on day 3 post infection by MTS assay; assay type: functional, cell-based; conditions: B/Hong Kong/05/1972, MDCK, 72 h
[8] = Cytotoxicity against MDCK cells assessed as minimum concentration required to cause microscopically detectable alteration measured on day 3 post infection by MTS assay; assay type: cell-based, Canis lupus familiaris; conditions: dog

| SMILES | MIC (Bacillus subtilis) | MIC [1] | MIC (Staphylococcus aureus [2]) | MIC (Staphylococcus aureus [3]) | MIC (Enterococcus faecalis [4]) | MIC (Enterococcus faecalis [5]) | MIC [6] | MIC (Enterococcus faecalis [7]) | EC50 (Influenza A virus) | EC50 (H3N2 subtype) | EC50 (Influenza B virus) | MCC at 3 days [8] |
| --- | --- | --- | --- | --- | --- | --- | --- | --- | --- | --- | --- | --- |
| COC(=O)[C@H]1NC(=O)[C@H]2NC(=O)[C@H](NC(=O)[C@@H]3NC(=O)[C@H]4NC(=O)[C@H](NC(=O)[C@H](n5cc6ccccc6c5S[C@@H]5O[C@H](COC(C)=O)[C@@H](OC(C)=O)[C@H](OC(C)=O)[C@H]5OC(C)=O)c5ccc(O)c(c5)Oc5cc4cc(O)c5C)[C@H](O)c4ccc(cc4)Oc4cc3cc(c4O)Oc3ccc(cc3)[C@H]2O)c2ccc(O)c(c2)-c2c(O)cc(O)cc21 | 8 µg/mL (≈ 4.89 µM) | 1 µg/mL (≈ 0.611 µM) | 1 µg/mL (≈ 0.611 µM) | 2 µg/mL (≈ 1.22 µM) | 8 µg/mL (≈ 4.89 µM) | 2 µg/mL (≈ 1.22 µM) | 4 µg/mL (≈ 2.44 µM) | 8 µg/mL (≈ 4.89 µM) | 160 nM | 72 nM | > 100000 nM | ≥ 4 µM |
| COC(=O)[C@H]1NC(=O)[C@H]2NC(=O)[C@H](NC(=O)[C@@H]3NC(=O)[C@H]4NC(=O)[C@H](NC(=O)[C@H](n5cc6ccccc6c5S[C@@H]5O[C@H](CO)[C@@H](O)[C@H](O)[C@H]5O)c5ccc(O)c(c5)Oc5cc4cc(O)c5C)[C@H](O)c4ccc(cc4)Oc4cc3cc(c4O)Oc3ccc(cc3)[C@H]2O)c2ccc(O)c(c2)-c2c(O)cc(O)cc21 | 2 µg/mL (≈ 1.36 µM) | 4 µg/mL (≈ 2.72 µM) | 1 µg/mL (≈ 0.681 µM) | 1 µg/mL (≈ 0.681 µM) | 1 µg/mL (≈ 0.681 µM) | 1 µg/mL (≈ 0.681 µM) | 1 µg/mL (≈ 0.681 µM) | 2 µg/mL (≈ 1.36 µM) | 270 nM | 2300 nM | > 100000 nM | 20 µM |
| COC(=O)[C@H]1NC(=O)[C@H]2NC(=O)[C@H](NC(=O)[C@@H]3NC(=O)[C@H]4NC(=O)[C@H](NC(=O)[C@H](n5cc6ccccc6c5S[C@@H]5O[C@H](COC(C)=O)[C@@H](OC(C)=O)[C@H](OC(C)=O)[C@H]5NC(C)=O)c5ccc(O)c(c5)Oc5cc4cc(O)c5C)[C@H](O)c4ccc(cc4)Oc4cc3cc(c4O)Oc3ccc(cc3)[C@H]2O)c2ccc(O)c(c2)-c2c(O)cc(O)cc21 | 8 µg/mL (≈ 4.89 µM) | 4 µg/mL (≈ 2.45 µM) | 4 µg/mL (≈ 2.45 µM) | 4 µg/mL (≈ 2.45 µM) | 4 µg/mL (≈ 2.45 µM) | 4 µg/mL (≈ 2.45 µM) | 4 µg/mL (≈ 2.45 µM) | 4 µg/mL (≈ 2.45 µM) | 1800 nM | 1800 nM | > 100000 nM | 20 µM |
| COC(=O)[C@H]1NC(=O)[C@H]2NC(=O)[C@H](NC(=O)[C@@H]3NC(=O)[C@H]4NC(=O)[C@H](NC(=O)[C@H](n5cc6ccccc6c5Sc5ccccc5)c5ccc(O)c(c5)Oc5cc4cc(O)c5C)[C@H](O)c4ccc(cc4)Oc4cc3cc(c4O)Oc3ccc(cc3)[C@H]2O)c2ccc(O)c(c2)-c2c(O)cc(O)cc21 | 2 µg/mL (≈ 1.45 µM) | 0.5 µg/mL (≈ 0.362 µM) | 1 µg/mL (≈ 0.723 µM) | 1 µg/mL (≈ 0.723 µM) | 4 µg/mL (≈ 2.89 µM) | 2 µg/mL (≈ 1.45 µM) | 1 µg/mL (≈ 0.723 µM) | 1 µg/mL (≈ 0.723 µM) | 670 nM | 680 nM | 1400 nM | 6.4 µM |
| COC(=O)[C@H]1NC(=O)[C@H]2NC(=O)[C@H](NC(=O)[C@@H]3NC(=O)[C@H]4NC(=O)[C@H](NC(=O)[C@H](n5cc6ccccc6c5Sc5nc6ccccc6s5)c5ccc(O)c(c5)Oc5cc4cc(O)c5C)[C@H](O)c4ccc(cc4)Oc4cc3cc(c4O)Oc3ccc(cc3)[C@H]2O)c2ccc(O)c(c2)-c2c(O)cc(O)cc21 | 2 µg/mL (≈ 1.39 µM) | 2 µg/mL (≈ 1.39 µM) | 0.5 µg/mL (≈ 0.347 µM) | 1 µg/mL (≈ 0.695 µM) | 1 µg/mL (≈ 0.695 µM) | 0.5 µg/mL (≈ 0.347 µM) | 1 µg/mL (≈ 0.695 µM) | 2 µg/mL (≈ 1.39 µM) | 1400 nM | 4000 nM | 8900 nM | 20 µM |
| COC(=O)[C@H]1NC(=O)[C@H]2NC(=O)[C@H](NC(=O)[C@@H]3NC(=O)[C@H]4NC(=O)[C@H](NC(=O)[C@H](n5cc6ccccc6c5Sc5ncccn5)c5ccc(O)c(c5)Oc5cc4cc(O)c5C)[C@H](O)c4ccc(cc4)Oc4cc3cc(c4O)Oc3ccc(cc3)[C@H]2O)c2ccc(O)c(c2)-c2c(O)cc(O)cc21 | 0.5 µg/mL (≈ 0.361 µM) | 2 µg/mL (≈ 1.44 µM) | 1 µg/mL (≈ 0.722 µM) | 1 µg/mL (≈ 0.722 µM) | 0.5 µg/mL (≈ 0.361 µM) | 0.5 µg/mL (≈ 0.361 µM) | 0.5 µg/mL (≈ 0.361 µM) | 0.5 µg/mL (≈ 0.361 µM) | 300 nM | 1800 nM | > 100000 nM | 20 µM |
| COC(=O)[C@H]1NC(=O)[C@H]2NC(=O)[C@H](NC(=O)[C@@H]3NC(=O)[C@H]4NC(=O)[C@H](NC(=O)[C@H](n5cc6cc7ccccc7cc6c5Sc5ccccc5)c5ccc(O)c(c5)Oc5cc4cc(O)c5C)[C@H](O)c4ccc(cc4)Oc4cc3cc(c4O)Oc3ccc(cc3)[C@H]2O)c2ccc(O)c(c2)-c2c(O)cc(O)cc21 | 0.5 µg/mL (≈ 0.349 µM) | 1 µg/mL (≈ 0.698 µM) | 0.5 µg/mL (≈ 0.349 µM) | 0.5 µg/mL (≈ 0.349 µM) | 0.5 µg/mL (≈ 0.349 µM) | 0.5 µg/mL (≈ 0.349 µM) | 1 µg/mL (≈ 0.698 µM) | 0.5 µg/mL (≈ 0.349 µM) | > 100000 nM | > 100000 nM | > 100000 nM | 20 µM |
| COC(=O)[C@H]1NC(=O)[C@H]2NC(=O)[C@H](NC(=O)[C@@H]3NC(=O)[C@H]4NC(=O)[C@H](NC(=O)[C@H](n5cc6cc7ccccc7cc6c5Sc5ncccn5)c5ccc(O)c(c5)Oc5cc4cc(O)c5C)[C@H](O)c4ccc(cc4)Oc4cc3cc(c4O)Oc3ccc(cc3)[C@H]2O)c2ccc(O)c(c2)-c2c(O)cc(O)cc21 | 2 µg/mL (≈ 1.39 µM) | 4 µg/mL (≈ 2.79 µM) | 2 µg/mL (≈ 1.39 µM) | 2 µg/mL (≈ 1.39 µM) | 2 µg/mL (≈ 1.39 µM) | 2 µg/mL (≈ 1.39 µM) | 2 µg/mL (≈ 1.39 µM) | 2 µg/mL (≈ 1.39 µM) | 80 nM | 360 nM | > 100000 nM | ≥ 0.8 µM |
| COC(=O)[C@H]1NC(=O)[C@H]2NC(=O)[C@H](NC(=O)[C@@H]3NC(=O)[C@H]4NC(=O)[C@H](NC(=O)[C@H](N)c5ccc(O)c(c5)Oc5cc4cc(O)c5C)[C@H](O)c4ccc(cc4)Oc4cc3cc(c4O)Oc3ccc(cc3)[C@H]2O)c2ccc(O)c(c2)-c2c(O)cc(O)cc21 [AGLYCORISTOCETIN] | – | – | – | – | – | – | – | – | 2300 nM | 6800 nM | > 100000 nM | > 100 µM |
| NC12CC3CC(CC(C3)C1)C2 [AMANTADINE] | – | – | – | – | – | – | – | – | 7600 nM | 2300 nM | > 500000 nM | > 500 µM |
| NC(=O)c1ncn([C@@H]2O[C@H](CO)[C@@H](O)[C@H]2O)n1 [RIBAVIRIN] | – | – | – | – | – | – | – | – | 6800 nM | 8900 nM | – | ≥ 20 µM |
| Cc1c(O)cc2cc1Oc1cc(ccc1O)[C@@H](N)C(=O)N[C@H]1C(=O)N[C@@H]2C(=O)N[C@H]2C(=O)N[C@H]3C(=O)N[C@H](C(=O)N[C@@H](C(=O)O)c4cc(O)cc(O[C@H]5O[C@H](CO)[C@@H](O)[C@H](O)[C@@H]5O)c4-c4cc3ccc4O)[C@H](O[C@H]3C[C@@H](N)[C@@H](O)[C@H](C)O3)c3ccc(cc3)Oc3cc2cc(c3O[C@H]2O[C@@H](CO[C@H]3O[C@H](C)[C@@H](O)[C@H](O)[C@@H]3O)[C@H](O)[C@@H](O)[C@@H]2O[C@H]2O[C@H](CO)[C@@H](O)[C@H](O)[C@@H]2O[C@H]2O[C@H](CO)[C@@H](O)[C@@H]2O)Oc2ccc(cc2)[C@H]1O [RISTOCETIN] | 16 µg/mL (≈ 7.79 µM) | 2 µg/mL (≈ 0.974 µM) | 32 µg/mL (≈ 15.6 µM) | 128 µg/mL (≈ 62.3 µM) | 16 µg/mL (≈ 7.79 µM) | 4 µg/mL (≈ 1.95 µM) | 128 µg/mL (≈ 62.3 µM) | 256 µg/mL (≈ 125 µM) | – | – | – | – |
| CN[C@H](CC(C)C)C(=O)N[C@H]1C(=O)N[C@@H](CC(N)=O)C(=O)N[C@H]2C(=O)N[C@H]3C(=O)N[C@H](C(=O)N[C@H](C(=O)O)c4cc(O)cc(O)c4-c4cc3ccc4O)[C@H](O)c3ccc(c(Cl)c3)Oc3cc2cc(c3O[C@@H]2O[C@H](CO)[C@@H](O)[C@H](O)[C@H]2O[C@H]2C[C@](C)(N)[C@H](O)[C@H](C)O2)Oc2ccc(cc2Cl)[C@H]1O [VANCOMYCIN] | 0.5 µg/mL (≈ 0.345 µM) | – | – | – | 256 µg/mL (≈ 177 µM) | 1 µg/mL (≈ 0.69 µM) | – | 128 µg/mL (≈ 88.3 µM) | – | – | – | – |
| CC(=O)N[C@H]1[C@H]([C@H](O)[C@H](O)CO)OC(C(=O)O)=C[C@@H]1NC(=N)N [ZANAMIVIR] | – | – | – | – | – | – | – | – | 300 nM | 1800 nM | 34000 nM | > 100 µM |

From ChEMBL document CHEMBL2150984, “Synthesis of fluorescent ristocetin aglycon derivatives with remarkable antibacterial and antiviral activities” (Eur J Med Chem, 2012)
